Measured values taken from US6150359A, “Naphthyridinones for inhibiting protein tyrosine kinase and cell cycle kinase mediated cellular proliferation” (Warner-Lambert Company, priority 2000, dated 2000).

How the values were obtained:
[1] = target: T1, FGFr (human FGF-1 (flg) receptor tyrosine kinase) (Homo sapiens, UniProt P11362); experiment: FGFr tyrosine kinase assay, 32P incorporation into glutamate-tyrosine copolymer; assay type: biochemical
T1 construct: PCR primers are designed to amplify a fragment of DNA that codes for the intracellular tyrosine kinase domain; made in house; host or cells: Sf9 insect cells (baculovirus), cell lysate
T1 sequence (P11362 478-767 limits assumed): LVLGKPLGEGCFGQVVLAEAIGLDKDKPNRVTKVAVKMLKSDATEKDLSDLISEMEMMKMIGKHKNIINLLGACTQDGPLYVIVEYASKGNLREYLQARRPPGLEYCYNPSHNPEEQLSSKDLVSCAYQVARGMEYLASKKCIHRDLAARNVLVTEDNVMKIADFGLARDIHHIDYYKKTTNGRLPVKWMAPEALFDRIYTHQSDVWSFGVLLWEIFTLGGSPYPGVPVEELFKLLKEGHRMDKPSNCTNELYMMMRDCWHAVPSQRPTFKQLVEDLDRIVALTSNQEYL
Protocol: Platelet Derived Growth Factor Receptor (PDGFr) and Fibroblast Growth Factor Receptor (FGFr). Full length cDNAs for the mouse PDGF-β and human FGF-1 (flg) receptor tyrosine kinases were obtained from J. Escobedo and are prepared as described in J. Biol. Chem., 1991;262:1482-1487. PCR primers are designed to amplify a fragment of DNA that codes for the intracellular tyrosine kinase domain. The fragment is melded into a baculovirus vector, cotransfected with AcMNPV DNA, and the recombinant virus isolated. SF9 insect cells are infected with the virus to overexpress the protein, and the cell lysate is used for the assay.
PDGFr and FGFr. […] Briefly, to each well is added 82.5 μL of incubation buffer containing 25 mM Hepes (pH 7.0), 150 mM NaCl, 0.1% Triton X-100, 0.2 mM PMSF, 0.2 mM sodium vanadate, 10 mM manganese chloride, and 750 μg/mL of poly (4:1) glutamate-tyrosine followed by 2.5 μL of inhibitor and 5 μL of enzyme lysate (7.5 μg/μL FGFR-TK or 6.0 μg/μL PDGFR-TK) to initiate the reaction. Following a 10 minute incubation at 25° C., 10 μL of [γ^32 P]ATP (0.4 μCi plus 50 μM ATP) is added to each well, and samples are incubated for an additional 10 minutes at 25° C. The reaction is terminated by the addition of 100 μL of 30% trichloroacetic acid (TCA) containing 20 mM sodium pyrophosphate and precipitation of material onto glass fiber filter mats (Wallac). […] Nonspecific activity is defined as radioactivity retained on the filters following incubation of samples with buffer alone; (no enzyme). Specific enzymatic activity is defined as total activity (enzyme plus buffer) minus nonspecific activity.

SW-620 cells = experiment: Human Colon Carcinoma Clonogenic Assay, SW-620; assay type: cell-based; conditions: SW-620, 2 days with drug, colonies after approximately 2 weeks
Protocol: Human Colon Carcinoma Clonozenic Assay. Human colon carcinoma cells are seeded into 6 well plates in volumes of 3 mL and allowed to incubate overnight (37° C., 5% CO2, 95% air). SW-620 cells are seeded at 7×10^5 per well; HCT-8 cells are seeded at 5×10^5 per well; HT-29 cells are seeded at 4×10^5 cells per well. Serially diluted drugs are prepared at 200 times the final concentration, and 15 μL are added to each of duplicate wells. Cells are incubated with drug for 2 days, rinsed once with 1 mL of trypsin+EDTA, and then trypsinized with the same trypsin solution. After trituration and centrifugation at 750×g for 3 minutes, the cells are suspended in serum-free growth medium and counted using an electronic particle counter. An agarose mixture appropriate for the cloning of each cell line is made using 10% fetal bovine serum in growth medium (SW-620-0.35% agarose, HCT-8 and HT-29-0.4% agarose). […] One; milliliter of each of these cell suspensions is added to duplicate wells of 6 well plates previously prepared with 10% serum/growth medium/1% agarose plugs. The cells in these plates are incubated for approximately 2 weeks in the incubator and stained with 1 mL per well of 1 mg/mL iodonitrotetrazolium violet stain. The visible colonies are counted with an electronic optical colony counter and the clonogenicity of treated cells calculated in comparison to untreated control cells.

[2] = target: MAP Kinase Pathway (GST-MEK / GST-MAPK); experiment: Cascade Assay for Inhibitors of the MAP Kinase Pathway (APK Assay); assay type: biochemical; conditions: 50 μM [γ32P]ATP; compounds assessed at 10 μM
Protocol: Cascade Assay for Inhibitors of the MAP Kinase Pathway (APK Assay)
Incorporation of ^32 P into myelin basic protein (MBP) is assayed in the presence of a glutathione; S-transferase fusion protein containing p44MAP kinase (GST-MAPK) and a glutathione; S-transferase fusion protein containing p45MEK (GST-MEK). The assay solution contains 20 mM HEPES, pH 7.4, 10 mM magnesium chloride, 1 mM manganese chloride, 1 mM EGTA, 50 μM [γ^32 P]ATP, 10 μg GST-MEK, 0.5 μg GST-MAPK and 40 μg MBP in a final volume of 100 μL. Reactions are stopped after 20 minutes by addition of trichloroacetic acid and filtered through a GF/C filter mat. ^32 P retained on the filter mat is determined using a 1205 betaplate. Compounds are assessed at 10 μM for ability to inhibit incorporation of ^32 P.
To ascertain whether compounds are inhibiting GST-MEK or GST MAPK, two additional protocols are employed. In the first protocol, compounds are added to tubes containing GST-MEK, followed by addition of GST-MAPK, MBP and [γ^32 P]ATP. In the second protocol, compounds are added to tubes containing both GST-MEK and GST-MAPK, followed by MBP and [γ^32 P]ATP.
Compounds that show activity in both protocols are scored as MAPK inhibitors, while compounds showing activity in only the first protocol are scored as MEK inhibitors.

CCN(CC)CCCCNc1cc2c(cn1)cc(-c1c(Cl)cccc1Cl)c(=O)n2C [Example F, 3-(2,6-dichlorophenyl)-7-[4-(diethylamino)butylamino]-1-methyl-1H-[1,6]naphthyridin-2-one]
IC50 [1]: 70 nM
IC50 (SW-620 cells): > 5000 nM
IC50 [2]: > 10000 nM

CN1CCN(CCCNc2cc3c(cn2)cc(-c2c(Cl)cccc2Cl)c(=O)n3C)CC1 [Example H, 3-(2,6-dichlorophenyl)-1-methyl-7-[3-(4-methylpiperazin-1-yl)propylamino]-1H-[1,6]naphthyridin-2-one]
IC50 [1]: 50 nM
IC50 [2]: 10000 nM

CN1CCN(CCOc2ccc(Nc3cc4c(cn3)cc(-c3c(Cl)cccc3Cl)c(=O)n4C)cc2)CC1 [Example S, 3-(2,6-dichlorophenyl)-1-methyl-7-[(4-(2-(4-methylpiperazin-1-yl)ethoxy)phenyl)amino]-1H-[1,6]naphthyridin-2-one]
IC50 (SW-620 cells): 2800 nM
